Data: PMC6256112, “Cannabinoid Receptor 2 Signalling Bias Elicited by 2,4,6-Trisubstituted 1,3,5-Triazines” (Frontiers in Pharmacology, 2018)

What was measured:
hCB2 [1] = target: T1, hCB2 (Homo sapiens, UniProt P34972); assay: Radioligand competition binding with [3H]-CP 55,940 on hCB2-expressing HEK membranes; details: for hCB2 displacement of [3H]-CP 55,940 in 10 μM screen (in words): 10 μM heterologous competition screen, cut-off 60%; for inhibition at 10 µM: 1 h, read-out: CB2 binding extent at 10 μM (%) (±SEM)
T1 construct: expressed in transfected cells; host or cells: HEK Flp-in

HEK Flp-in wt cells = assay: CAMYEL cAMP assay in HEK Flp-in wt cells (non-hCB2-mediated effects); format: cell-based, human; details: HEK Flp-in wt
hCB1 = target: T2, hCB1 (Homo sapiens, UniProt P21554); assay: Radioligand competition binding screen with [3H]-CP 55,940 on hCB1-expressing HEK membranes; details: 10 μM compound; displacement of 0.75 nM [3H]-CP 55,940
T2 construct: expressed in transfected cells; host or cells: HEK (membranes)

hCB2 [2] = target: T1, hCB2; assay: hCB2 internalisation assay (immunocytochemistry of surface receptor), HEK Flp-in hCB2 cells; format: cell-based; set-up: Emax: dose or concentration left out as unconfirmed
hCB2 [3] = target: T1, hCB2; assay: Real-time CAMYEL BRET cAMP assay, forskolin-stimulated HEK Flp-in hCB2 cells; format: cell-based
Protocol: Cellular cAMP levels were measured using a real-time BRET biosensor (CAMYEL) as previously described ([Cawston et al., 2013]). In brief, cells were seeded in 10 cm dishes one day prior to transfection. The medium was then replaced and cells transfected with 5 μg of pcDNA3L-His-CAMYEL (ATCC, Manassas, VA, United States) using linear PEI (MW 25 kDa; Polysciences, Warrington, PA, United States) with a DNA:PEI ratio of 1:6. Approximately 24 h after transfection, cells were trypsinised and re-plated in poly-D-lysine treated white 96-well plates (Corning), at a density of 5–6 × 10^4 cells per well. For experiments involving pertussis toxin (PTX; Sigma-Aldrich) pre-treatment, cells were seeded in half the usual volume of medium, and then ∼5 h later, 2× concentrated PTX or vehicle (50% glycerol, […] Tris–HCl pH 7.5, 10 mM glycine, 500 mM NaCl) were prepared in medium and added to the existing plating medium (giving rise to a final PTX concentration of 100 ng mL^-1). Approximately 24 h after plating (or 16–20 h after applying PTX/vehicle in experiments involving PTX treatment), cells were washed once with Hank’s Balanced Salt Solution (HBSS, Thermo Fisher Scientific, catalogue #14025-134), and then equilibrated for 30 min in HBSS supplemented with 1 mg mL^-1 BSA. Coelenterazine h (final concentration 5 μM; NanoLight Technologies, Pinetop, AZ, United States) was added to each well and incubated for 5 min. Forskolin was added (final concentration 5 μM) and incubated for 6 min (allowing enough time for the induced cAMP increase to plateau), prior to vehicle/drug addition. All drugs and reagents were prepared in HBSS supplemented with 1 mg mL^-1 BSA. SR 144528 was a generous gift from Roche (Basel, Switzerland).
Assays were carried out in technical duplicate. Emissions were detected at 460 nm (Rluc) and 535 nm (YFP) with either a LUMIstar® Omega luminometer (BMG Labtech, Ortenberg, Germany) or CLARIOstar® (BMG Labtech). BRET ratios (535 nm emissions/460 nm emissions, where an increase in ratio corresponds to a decrease in cAMP) were normalised to pre-forskolin reads (i.e., with coelenterazine h present) to remove any variability present prior to addition of forskolin and drug/vehicle. A Lowess curve (GraphPad Prism) was fitted to individual technical replicates within an assay so that cAMP signalling data could be extrapolated from any time point as opposed to only those that were empirically measured (typically every 30–60 s). Data were normalised to matched vehicle (0%) and forskolin (100%) treatments, allowing compilation of data from independent experiments.

hCB2 [4] = target: T1, hCB2; assay: pERK AlphaLISA assay, HEK Flp-in hCB2 cells; format: cell-based
hCB2 [5] = target: T1, hCB2; assay: Comparison of efficacy/potency and operational-model bias analysis between hCB2 pathways, reference CP 55,940; format: cell-based
[6] = 10 μM compound, displacement of 0.5 nM [3H]-CP 55,940
[7] = operational model transduction ratio
[8] = 10^ΔΔlogR, relative to CP 55,940
[9] = relative to reference ligand CP 55,940

T1 sequence (P34972 whole entry): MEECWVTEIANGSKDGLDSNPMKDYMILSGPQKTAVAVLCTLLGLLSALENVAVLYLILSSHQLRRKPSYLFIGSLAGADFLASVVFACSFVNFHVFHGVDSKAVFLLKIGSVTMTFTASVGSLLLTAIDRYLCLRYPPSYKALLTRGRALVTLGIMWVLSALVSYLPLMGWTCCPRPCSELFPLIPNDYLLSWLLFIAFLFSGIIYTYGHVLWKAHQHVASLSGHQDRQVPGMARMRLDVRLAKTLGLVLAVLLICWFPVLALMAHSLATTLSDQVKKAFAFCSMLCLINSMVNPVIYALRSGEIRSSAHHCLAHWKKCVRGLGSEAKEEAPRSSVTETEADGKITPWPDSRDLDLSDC
T2 sequence (P21554 whole entry): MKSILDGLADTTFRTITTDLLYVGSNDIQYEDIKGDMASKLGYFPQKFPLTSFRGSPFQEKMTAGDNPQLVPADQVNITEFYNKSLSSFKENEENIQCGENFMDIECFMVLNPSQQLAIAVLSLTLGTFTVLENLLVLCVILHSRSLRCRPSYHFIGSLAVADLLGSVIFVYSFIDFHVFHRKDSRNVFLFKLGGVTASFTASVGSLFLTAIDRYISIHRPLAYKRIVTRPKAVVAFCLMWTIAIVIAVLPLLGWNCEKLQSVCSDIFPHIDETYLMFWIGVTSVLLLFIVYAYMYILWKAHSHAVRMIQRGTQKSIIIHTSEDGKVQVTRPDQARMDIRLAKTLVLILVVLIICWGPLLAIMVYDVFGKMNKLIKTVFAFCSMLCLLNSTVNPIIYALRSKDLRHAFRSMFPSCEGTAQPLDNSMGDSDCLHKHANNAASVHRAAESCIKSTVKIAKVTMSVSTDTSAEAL

CCCCCCC(C)(C)c1ccc([C@@H]2C[C@H](O)CC[C@H]2CCCO)c(O)c1 [CP 55,940, reference compound]
CB2 binding extent at 10 μM (%) (±SEM) (hCB2 [1]; [6]): 100.0 (0.0) %
Non-hCB2-mediated effects on cAMP (in words) (HEK Flp-in wt cells): least pronounced non-hCB2 signalling profile
CB1 binding extent at 10 μM (%) (±SEM) (hCB1): 100.0 (0.0) %
Starting surface hCB2 internalised (hCB2 [2]; 1 h stimulation): ~66%
logR [log(τ/KA)] (±SEM) Internalisation (hCB2 [2]; [7]): 8.76 (0.1)
Emax (hCB2 [2]; read-out: Internalisation (1 h) Emax (±SEM)): -65.1%
logR [log(τ/KA)] (±SEM) cAMP (hCB2 [3]; [7]): 8.52 (0.02)
cAMP potency lower than binding affinity (hCB2 [3]; pEC50 versus pKd): ~0.4 log units
Emax (hCB2 [3]; read-out: cAMP (5 min) Emax (±SEM)): -41.7%
pERK potency lower than that for cAMP (hCB2 [4]): approximately 0.5 log unit
pERK potency lower than affinity (hCB2 [4]; EC50 versus Kd): ~10 fold
logR [log(τ/KA)] (±SEM) pERK (hCB2 [4]; [7]): 8.05 (0.03)
Time of maximal pERK response (hCB2 [4]; time course experiment): 4 min
Internalisation – pERK Bias factor (hCB2 [5]; [8]): 1.0
cAMP – internalisation Bias factor (hCB2 [5]; [8]): 1.0
cAMP – pERK Bias factor (hCB2 [5]; [8]): 1.0
Internalisation – pERK ΔΔlogR (±SEM) (hCB2 [5]; [9]): –0.02 (0.11)
cAMP – internalisation ΔΔlogR (±SEM) (hCB2 [5]; [9]): 0.01 (0.10)
cAMP – pERK ΔΔlogR (±SEM) (hCB2 [5]; [9]): 0.00 (0.04)

CCOc1nc(Cl)nc(NC2CCCC2)n1 [Compound 1, 4-Chloro-N-cyclopentyl-6-ethoxy-1,3,5-triazin-2-amine]
hCB2 displacement of [3H]-CP 55,940 in 10 μM screen (in words) (hCB2 [1]): failed to displace, or barely displaced
inhibition at 10 µM (hCB2 [1]; [6]): -8.1%

CCOc1nc(NC2CCCC2)nc(N2CCNCC2)n1 [Compound 2, N-cyclopentyl-4-ethoxy-6-(piperazin-1-yl)-1,3,5-triazin-2-amine]
hCB2 displacement of [3H]-CP 55,940 in 10 μM screen (in words) (hCB2 [1]): failed to displace, or barely displaced
inhibition at 10 µM (hCB2 [1]; [6]): 5.8%

CCOc1nc(NC2CCCC2)nc(N2CCN(CCCCCCN)CC2)n1 [Compound 5, 4-(4-(6-Aminohexyl)Piperazin-1-yl)-N-Cyclopentyl-6-Ethoxy-1,3,5-Triazin-2-Amine]
hCB2 displacement of [3H]-CP 55,940 in 10 μM screen (in words) (hCB2 [1]): failed to displace, or barely displaced
inhibition at 10 µM (hCB2 [1]; [6]): 16.6%

CCOc1nc(NC2CCCC2)nc(N2CCN(CCOCCOCCN)CC2)n1 [Compound 6, 4-(4-(2-(2-(2-Aminoethoxy)Ethoxy)Ethyl)Piperazin-1-yl)-N-Cyclopentyl-6-Ethoxy-1,3,5-Triazin-2-Amine]
hCB2 displacement of [3H]-CP 55,940 in 10 μM screen (in words) (hCB2 [1]): failed to displace, or barely displaced
inhibition at 10 µM (hCB2 [1]; [6]): 15.6%
